Results published in ChEMBL document CHEMBL1201862, “PubChem BioAssay data set” (2004).
Active and inactive are the calls of the source.

What was measured:
[1] = tested on: Danio rerio; test: In Vivo Angiogenesis Dose-Response Confirmation. [Related pubchem assays: 732 (Assay preceding this confirmatory assay.)]; type: functional, organism-based
[2] = target: T1, Estrogen receptor beta (Homo sapiens, UniProt Q92731); test: blockers of SRC-3 recruitment to ERβ – biochemical, ELISA, streptavidin-HRP readout, orthogonal assay, confirmation (AID 1060)
[3] = target: T2, Estrogen receptor (Homo sapiens, UniProt P03372);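 also: potency for inhibiting coactivator peptide recruitment to the receptor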
T2 sequence (P03372 whole entry): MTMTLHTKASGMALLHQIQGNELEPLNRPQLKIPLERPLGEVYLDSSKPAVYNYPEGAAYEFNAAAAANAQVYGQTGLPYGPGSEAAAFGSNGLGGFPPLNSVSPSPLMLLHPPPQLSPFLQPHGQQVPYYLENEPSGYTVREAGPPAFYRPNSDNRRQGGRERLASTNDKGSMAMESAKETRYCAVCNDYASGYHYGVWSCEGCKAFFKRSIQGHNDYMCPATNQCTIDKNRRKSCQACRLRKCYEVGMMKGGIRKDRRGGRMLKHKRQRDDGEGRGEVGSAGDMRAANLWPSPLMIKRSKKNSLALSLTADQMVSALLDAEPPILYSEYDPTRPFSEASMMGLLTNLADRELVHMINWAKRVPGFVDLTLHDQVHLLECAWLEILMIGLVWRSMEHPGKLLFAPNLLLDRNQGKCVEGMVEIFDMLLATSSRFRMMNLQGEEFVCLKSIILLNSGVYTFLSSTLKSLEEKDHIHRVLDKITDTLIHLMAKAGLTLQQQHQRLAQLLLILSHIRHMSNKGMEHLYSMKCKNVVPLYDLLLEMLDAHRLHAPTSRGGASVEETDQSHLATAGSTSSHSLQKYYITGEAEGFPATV

[4] = target: T1, Estrogen receptor beta
[5] = target: Aryl hydrocarbon receptor (Homo sapiens, UniProt P35869); test: Luminescence-based cell-based high throughput dose response assay for activators of the Aryl Hydrocarbon Receptor (AHR). [Related pubchem assays: 2796 (Primary screen (AHR activators in singlicate)), 2845 (Confirmation screen (AHR activators in triplicate)), 434939 (Counterscreen (PXR activators in triplicate)), 2804 (Summary (AHR activators))]; type: ADME
[6] = target: Major prion protein (Homo sapiens, UniProt P04156); type: functional, cell-based
[7] = cells
[8] = target: Genome polyprotein (Hepatitis C virus, UniProt Q2Q167); test: disruption of hepatitis C core self-association – biochemical, TR-FRET, dose response (AID 2159); parameters: species or system Hepacivirus hominis;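 also: blocks dimerization of HCV core protein measured by TR-FRET between tagged core106 pairs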
[9] = target: Mitogen-activated protein kinase 10 (Homo sapiens, UniProt P53779); test: Dose response biochemical screening assay for inhibitors of c-Jun N-Terminal Kinase 3 (JNK3). [Related pubchem assays: 746 ]
[10] = tested on: BJ; test: BJ-TERT fibroblast viability loss – cell-based, RAS-independent, luminescence, dose response (AID 1933); type: functional; conditions: Homo sapiens
[11] = tested on: BJ; test: cells; type: functional, cell-based; conditions: Homo sapiens
[12] = tested on: BJ; test: BJ-TERT-LT-ST fibroblast viability loss – cell-based, RAS-independent, luminescence, dose response (AID 1935); type: functional; conditions: Homo sapiens;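 also: BJ fibroblasts immortalized with TERT plus LT and ST oncogenes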
[13] = viability loss in Vero cells – cytotoxicity control for Vif-APOBEC3G degradation inhibitor project, dose response (AID 1117358); type: functional; conditions: Vero
[14] = DRD fibroblast viability loss – cell-based, non-viral oncogenic, luminescence, dose response (AID 1934); type: functional; conditions: Homo sapiens
[15] = target: Cytochrome P450 2D6 (Homo sapiens, UniProt P10635); test: qHTS Assay for Inhibitors and Substrates of Cytochrome P450 2D6. [Related pubchem assays: 410 ]; type: ADME; conditions: read-out: Potency
[16] = target: Cytochrome P450 3A4 (Homo sapiens, UniProt P08684); conditions: Potency;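 also: confirmatory qHTS run detecting inhibitors and substrates of CYP3A4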
[17] = target: Cytochrome P450 2C19 (Homo sapiens, UniProt P33261); test: qHTS Assay for Inhibitors and Substrates of Cytochrome P450 2C19. [Related pubchem assays: 410 ]; type: ADME; conditions: read-out: Potency
[18] = target: T3, SUMO-activating enzyme (Homo sapiens, UniProt Q9UBT2); test: blockers of SAE1/SAE2–UBC9 SUMO transfer – biochemical, HTRF, uHTS, primary screen (AID 2006); type: protein-complex assay
[19] = target: Large T antigen (Simian virus 40, UniProt P03070); type: functional, Betapolyomavirus macacae;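 also: Confirmatory-stage PubChem screen for compounds that inhibit SV40 T antigen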
[20] = target: Protein Tat (Human immunodeficiency virus type 1 group M subtype B (isolate HXB2)(HIV-1), UniProt P04608); type: functional;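 also: tat binding to TAR RNA read out by fluorescence polarization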
[21] = target: T4, Protein RecA (Mycobacterium tuberculosis, UniProt P9WHJ3); test: Fluorescence Cell-Free Homogeneous Dose Retest to Identify Inhibitors of RecA-Intein Splicing Activity. [Related pubchem assays (depositor defined):AID2097, AID2223, AID489010, AID492950]; type: functional
T4 sequence (P9WHJ3 whole entry): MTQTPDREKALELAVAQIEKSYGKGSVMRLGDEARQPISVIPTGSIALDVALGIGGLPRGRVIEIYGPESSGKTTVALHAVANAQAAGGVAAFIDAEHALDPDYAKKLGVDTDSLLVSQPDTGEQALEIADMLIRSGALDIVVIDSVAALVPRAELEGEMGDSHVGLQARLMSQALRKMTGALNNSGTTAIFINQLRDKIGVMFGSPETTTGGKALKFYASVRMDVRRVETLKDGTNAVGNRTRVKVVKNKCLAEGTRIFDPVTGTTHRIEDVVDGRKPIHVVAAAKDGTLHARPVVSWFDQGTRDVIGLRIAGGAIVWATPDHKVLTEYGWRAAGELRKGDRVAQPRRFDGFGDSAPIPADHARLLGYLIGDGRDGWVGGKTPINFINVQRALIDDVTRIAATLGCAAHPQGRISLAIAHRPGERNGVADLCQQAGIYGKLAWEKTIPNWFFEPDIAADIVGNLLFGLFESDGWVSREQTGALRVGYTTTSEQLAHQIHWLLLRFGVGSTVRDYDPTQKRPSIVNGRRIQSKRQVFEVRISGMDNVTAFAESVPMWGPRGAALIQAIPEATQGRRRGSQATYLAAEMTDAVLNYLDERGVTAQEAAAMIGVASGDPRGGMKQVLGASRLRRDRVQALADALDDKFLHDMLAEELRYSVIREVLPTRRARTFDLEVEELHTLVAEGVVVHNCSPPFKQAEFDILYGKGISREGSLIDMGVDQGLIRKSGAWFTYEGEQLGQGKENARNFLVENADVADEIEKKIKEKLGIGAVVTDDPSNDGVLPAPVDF

[22] = target: T3, SUMO-activating enzyme; test: blockers of UBC9-mediated SUMO conjugation – biochemical, AlphaScreen, SUMOylation inhibitor project, confirmation (AID 2018); type: functional
[23] = target: Trypsin (Sus scrofa, UniProt P00761); test: trypsin protease activity blockade – biochemical, quenched peptide fluorescence, cherry-pick, selectivity assay for Rce1 protease inhibitor project, dose response (AID 488789)
[24] = target: T5, DNA repair and recombination protein RAD54-like (Homo sapiens, UniProt Q92698); test: RAD54 Holliday junction migration blockers – biochemical, fluorescence, cherry-picked samples, dose series, confirmation (AID 651657); type: functional
T5 sequence (Q92698 whole entry): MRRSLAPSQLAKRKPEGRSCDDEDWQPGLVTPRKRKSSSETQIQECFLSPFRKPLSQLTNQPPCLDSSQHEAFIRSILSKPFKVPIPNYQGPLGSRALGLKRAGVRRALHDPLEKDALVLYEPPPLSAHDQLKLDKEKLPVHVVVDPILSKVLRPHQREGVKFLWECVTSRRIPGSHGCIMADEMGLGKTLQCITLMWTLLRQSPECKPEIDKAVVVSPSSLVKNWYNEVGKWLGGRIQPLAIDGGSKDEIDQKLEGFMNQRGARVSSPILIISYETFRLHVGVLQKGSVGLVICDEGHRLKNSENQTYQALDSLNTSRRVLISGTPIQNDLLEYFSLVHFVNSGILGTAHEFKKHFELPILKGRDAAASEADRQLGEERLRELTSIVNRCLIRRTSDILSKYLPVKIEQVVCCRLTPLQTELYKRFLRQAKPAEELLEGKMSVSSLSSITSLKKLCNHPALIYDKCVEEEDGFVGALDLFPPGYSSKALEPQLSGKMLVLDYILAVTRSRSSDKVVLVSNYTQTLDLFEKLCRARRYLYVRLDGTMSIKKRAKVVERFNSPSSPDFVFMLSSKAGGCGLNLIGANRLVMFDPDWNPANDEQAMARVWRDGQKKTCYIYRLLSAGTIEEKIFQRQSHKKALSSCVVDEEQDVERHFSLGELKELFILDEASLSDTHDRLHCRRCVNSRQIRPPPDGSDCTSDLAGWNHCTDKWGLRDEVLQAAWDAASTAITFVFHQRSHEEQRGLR

[25] = target: T6, CAAX prenyl protease 2 (Saccharomyces cerevisiae S288c, UniProt Q03530); type: biochemical
T6 sequence (Q03530 whole entry): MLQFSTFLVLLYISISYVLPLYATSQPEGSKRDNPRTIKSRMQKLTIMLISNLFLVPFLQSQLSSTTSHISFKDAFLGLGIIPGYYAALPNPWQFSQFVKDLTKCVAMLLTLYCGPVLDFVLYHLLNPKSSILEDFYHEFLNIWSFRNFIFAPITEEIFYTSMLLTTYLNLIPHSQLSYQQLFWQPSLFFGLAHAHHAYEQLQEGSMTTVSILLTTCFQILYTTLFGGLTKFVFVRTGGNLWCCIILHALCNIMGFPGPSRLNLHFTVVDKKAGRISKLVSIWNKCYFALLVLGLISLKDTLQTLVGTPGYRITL

[26] = target: T7, DNA repair protein RAD52 homolog (Homo sapiens, UniProt P43351); type: functional, biochemical
T7 sequence (P43351 whole entry): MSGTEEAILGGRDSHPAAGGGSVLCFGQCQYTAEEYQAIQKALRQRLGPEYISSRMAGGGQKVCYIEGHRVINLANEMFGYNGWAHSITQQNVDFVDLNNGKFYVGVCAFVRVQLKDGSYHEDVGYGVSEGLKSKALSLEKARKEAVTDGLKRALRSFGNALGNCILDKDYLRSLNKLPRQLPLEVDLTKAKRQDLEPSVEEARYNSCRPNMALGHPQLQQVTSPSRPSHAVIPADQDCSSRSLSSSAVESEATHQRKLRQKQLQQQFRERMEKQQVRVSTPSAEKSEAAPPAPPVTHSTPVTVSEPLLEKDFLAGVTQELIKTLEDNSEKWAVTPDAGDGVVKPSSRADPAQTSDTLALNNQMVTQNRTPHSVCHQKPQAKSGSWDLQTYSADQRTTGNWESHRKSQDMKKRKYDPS

[27] = target: T8, CAAX prenyl protease 2 (Homo sapiens, UniProt Q9Y256); test: inhibition of Ras-converting CAAX protease Rce1 – biochemical, yeast membranes, quenched-peptide fluorescence, cherry-pick, dose response (AID 588849)
T8 sequence (Q9Y256 whole entry): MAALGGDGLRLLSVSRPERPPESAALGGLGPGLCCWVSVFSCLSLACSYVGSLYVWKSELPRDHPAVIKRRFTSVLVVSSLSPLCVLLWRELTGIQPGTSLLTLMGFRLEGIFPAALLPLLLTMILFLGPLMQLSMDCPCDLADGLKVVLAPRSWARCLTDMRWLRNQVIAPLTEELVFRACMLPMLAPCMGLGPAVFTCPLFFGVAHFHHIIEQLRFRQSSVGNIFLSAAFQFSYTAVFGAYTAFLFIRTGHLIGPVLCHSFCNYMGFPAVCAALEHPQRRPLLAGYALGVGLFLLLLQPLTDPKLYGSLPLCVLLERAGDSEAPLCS

T1 sequence (Q92731 whole entry): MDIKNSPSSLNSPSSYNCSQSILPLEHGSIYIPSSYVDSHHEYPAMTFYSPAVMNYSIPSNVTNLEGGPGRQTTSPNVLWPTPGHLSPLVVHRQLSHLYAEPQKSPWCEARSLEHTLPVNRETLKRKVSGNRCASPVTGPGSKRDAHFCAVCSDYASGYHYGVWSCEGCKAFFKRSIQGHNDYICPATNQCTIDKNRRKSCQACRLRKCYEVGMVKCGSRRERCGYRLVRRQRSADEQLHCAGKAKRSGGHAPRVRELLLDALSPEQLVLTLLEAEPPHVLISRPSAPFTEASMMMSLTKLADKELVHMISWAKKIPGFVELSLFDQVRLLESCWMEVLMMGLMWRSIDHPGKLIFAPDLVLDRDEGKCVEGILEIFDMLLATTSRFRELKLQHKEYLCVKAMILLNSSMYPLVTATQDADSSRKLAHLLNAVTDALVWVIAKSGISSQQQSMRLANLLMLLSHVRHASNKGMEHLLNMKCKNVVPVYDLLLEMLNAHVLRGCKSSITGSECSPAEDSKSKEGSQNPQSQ
Sequence of Mitogen-activated protein kinase 10 (P53779 whole entry): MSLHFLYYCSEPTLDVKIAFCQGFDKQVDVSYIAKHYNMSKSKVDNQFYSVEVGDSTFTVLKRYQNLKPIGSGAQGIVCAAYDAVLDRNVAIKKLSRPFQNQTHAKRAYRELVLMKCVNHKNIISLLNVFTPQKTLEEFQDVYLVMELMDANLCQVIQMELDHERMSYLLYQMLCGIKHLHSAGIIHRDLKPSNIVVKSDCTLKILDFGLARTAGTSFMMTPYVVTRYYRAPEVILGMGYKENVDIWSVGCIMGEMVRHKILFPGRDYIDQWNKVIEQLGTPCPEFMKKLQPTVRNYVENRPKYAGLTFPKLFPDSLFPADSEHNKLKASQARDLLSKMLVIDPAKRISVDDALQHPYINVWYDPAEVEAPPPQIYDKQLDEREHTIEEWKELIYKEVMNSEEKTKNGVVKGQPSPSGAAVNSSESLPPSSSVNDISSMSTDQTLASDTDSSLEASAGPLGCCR
Sequence of Protein Tat (P04608 whole entry): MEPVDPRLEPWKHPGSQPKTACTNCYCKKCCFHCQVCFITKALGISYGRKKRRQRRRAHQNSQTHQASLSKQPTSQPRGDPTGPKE
Sequence of Aryl hydrocarbon receptor (P35869 whole entry): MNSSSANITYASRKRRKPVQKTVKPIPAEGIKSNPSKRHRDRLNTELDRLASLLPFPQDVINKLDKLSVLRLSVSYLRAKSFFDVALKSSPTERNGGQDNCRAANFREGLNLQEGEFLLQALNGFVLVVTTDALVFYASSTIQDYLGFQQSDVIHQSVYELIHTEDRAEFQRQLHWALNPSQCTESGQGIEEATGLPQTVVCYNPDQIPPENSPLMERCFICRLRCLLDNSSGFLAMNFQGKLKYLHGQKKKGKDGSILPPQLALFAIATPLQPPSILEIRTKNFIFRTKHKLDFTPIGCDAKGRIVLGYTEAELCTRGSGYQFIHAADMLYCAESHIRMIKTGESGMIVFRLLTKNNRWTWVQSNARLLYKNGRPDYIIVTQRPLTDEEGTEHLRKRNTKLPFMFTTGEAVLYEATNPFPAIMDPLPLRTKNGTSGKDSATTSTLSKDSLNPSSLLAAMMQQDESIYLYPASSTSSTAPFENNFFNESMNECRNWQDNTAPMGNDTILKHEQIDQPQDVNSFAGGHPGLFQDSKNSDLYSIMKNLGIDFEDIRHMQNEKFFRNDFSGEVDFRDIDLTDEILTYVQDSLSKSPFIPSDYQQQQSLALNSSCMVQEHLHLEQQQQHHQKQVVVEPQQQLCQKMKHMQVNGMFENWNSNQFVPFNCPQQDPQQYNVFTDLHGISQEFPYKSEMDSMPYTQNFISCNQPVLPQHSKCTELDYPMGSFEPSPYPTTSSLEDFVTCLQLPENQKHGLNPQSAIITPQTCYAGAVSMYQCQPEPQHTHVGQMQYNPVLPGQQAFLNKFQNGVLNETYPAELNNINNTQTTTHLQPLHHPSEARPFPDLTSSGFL
T3 sequence (Q9UBE0 whole entry): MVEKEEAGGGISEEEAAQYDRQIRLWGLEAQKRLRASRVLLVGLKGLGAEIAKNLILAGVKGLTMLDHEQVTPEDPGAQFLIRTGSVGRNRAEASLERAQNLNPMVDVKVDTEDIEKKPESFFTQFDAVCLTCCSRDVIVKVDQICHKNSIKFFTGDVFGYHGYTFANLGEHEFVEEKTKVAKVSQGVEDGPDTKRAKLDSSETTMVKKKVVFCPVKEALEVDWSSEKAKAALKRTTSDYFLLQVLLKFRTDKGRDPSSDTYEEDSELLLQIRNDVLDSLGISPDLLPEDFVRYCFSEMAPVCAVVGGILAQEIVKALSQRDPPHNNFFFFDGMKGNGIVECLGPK
T3 sequence (Q9UBT2 whole entry): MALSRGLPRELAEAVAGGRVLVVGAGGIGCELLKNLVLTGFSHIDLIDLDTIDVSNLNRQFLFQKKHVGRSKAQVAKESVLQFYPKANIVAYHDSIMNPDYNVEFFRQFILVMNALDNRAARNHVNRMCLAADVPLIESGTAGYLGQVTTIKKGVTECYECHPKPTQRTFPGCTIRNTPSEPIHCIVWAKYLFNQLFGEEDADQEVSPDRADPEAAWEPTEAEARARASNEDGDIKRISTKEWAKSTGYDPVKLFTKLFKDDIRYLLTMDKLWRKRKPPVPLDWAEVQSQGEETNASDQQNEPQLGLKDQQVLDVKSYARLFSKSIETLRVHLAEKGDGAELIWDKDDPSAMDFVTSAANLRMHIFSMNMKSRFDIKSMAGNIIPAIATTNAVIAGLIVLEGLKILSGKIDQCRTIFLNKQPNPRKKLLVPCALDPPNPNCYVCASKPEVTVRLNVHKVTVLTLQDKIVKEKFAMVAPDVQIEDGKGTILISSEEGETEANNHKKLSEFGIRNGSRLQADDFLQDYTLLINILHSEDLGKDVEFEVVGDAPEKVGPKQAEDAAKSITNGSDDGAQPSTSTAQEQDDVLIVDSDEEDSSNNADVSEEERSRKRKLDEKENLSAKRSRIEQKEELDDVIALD
Sequence of Trypsin (P00761 whole entry): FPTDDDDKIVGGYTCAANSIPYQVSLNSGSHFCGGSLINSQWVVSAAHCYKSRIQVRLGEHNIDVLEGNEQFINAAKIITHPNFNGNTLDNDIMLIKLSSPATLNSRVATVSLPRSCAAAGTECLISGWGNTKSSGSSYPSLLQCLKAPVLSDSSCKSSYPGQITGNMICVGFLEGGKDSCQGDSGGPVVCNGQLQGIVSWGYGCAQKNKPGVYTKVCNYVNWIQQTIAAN
Sequence of Cytochrome P450 2C19 (P33261 whole entry): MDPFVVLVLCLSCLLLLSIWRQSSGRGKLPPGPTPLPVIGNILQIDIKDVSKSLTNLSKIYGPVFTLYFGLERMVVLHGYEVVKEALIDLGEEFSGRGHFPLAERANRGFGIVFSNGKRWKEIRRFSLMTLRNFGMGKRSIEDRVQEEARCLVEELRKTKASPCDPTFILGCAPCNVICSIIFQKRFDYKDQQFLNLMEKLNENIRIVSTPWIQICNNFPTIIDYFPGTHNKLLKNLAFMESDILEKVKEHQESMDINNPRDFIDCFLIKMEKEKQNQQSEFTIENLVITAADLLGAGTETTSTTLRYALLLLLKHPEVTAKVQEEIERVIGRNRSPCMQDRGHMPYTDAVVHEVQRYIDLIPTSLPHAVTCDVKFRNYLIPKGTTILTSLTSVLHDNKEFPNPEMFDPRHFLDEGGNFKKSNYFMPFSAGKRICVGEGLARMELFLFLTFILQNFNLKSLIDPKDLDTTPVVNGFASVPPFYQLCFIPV
Sequence of Cytochrome P450 3A4 (P08684 whole entry): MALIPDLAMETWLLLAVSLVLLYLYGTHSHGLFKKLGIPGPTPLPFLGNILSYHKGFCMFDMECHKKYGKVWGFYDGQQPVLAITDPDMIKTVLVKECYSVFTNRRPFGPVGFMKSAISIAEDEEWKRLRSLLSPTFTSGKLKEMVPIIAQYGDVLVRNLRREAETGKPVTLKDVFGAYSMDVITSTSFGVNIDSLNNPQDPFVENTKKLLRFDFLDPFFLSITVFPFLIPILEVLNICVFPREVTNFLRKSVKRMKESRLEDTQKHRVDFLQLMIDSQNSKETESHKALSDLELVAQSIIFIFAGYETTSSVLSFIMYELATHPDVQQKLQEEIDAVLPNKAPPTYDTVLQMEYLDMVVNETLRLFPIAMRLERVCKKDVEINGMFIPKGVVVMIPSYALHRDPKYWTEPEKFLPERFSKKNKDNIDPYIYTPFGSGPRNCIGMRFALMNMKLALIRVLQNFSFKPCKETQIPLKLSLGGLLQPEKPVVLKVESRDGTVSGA
Sequence of Genome polyprotein (Q2Q167 whole entry): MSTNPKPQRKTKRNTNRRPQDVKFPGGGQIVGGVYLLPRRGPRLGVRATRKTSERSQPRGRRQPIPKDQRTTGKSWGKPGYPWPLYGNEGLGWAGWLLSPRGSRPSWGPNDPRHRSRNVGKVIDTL
Sequence of Cytochrome P450 2D6 (P10635 whole entry): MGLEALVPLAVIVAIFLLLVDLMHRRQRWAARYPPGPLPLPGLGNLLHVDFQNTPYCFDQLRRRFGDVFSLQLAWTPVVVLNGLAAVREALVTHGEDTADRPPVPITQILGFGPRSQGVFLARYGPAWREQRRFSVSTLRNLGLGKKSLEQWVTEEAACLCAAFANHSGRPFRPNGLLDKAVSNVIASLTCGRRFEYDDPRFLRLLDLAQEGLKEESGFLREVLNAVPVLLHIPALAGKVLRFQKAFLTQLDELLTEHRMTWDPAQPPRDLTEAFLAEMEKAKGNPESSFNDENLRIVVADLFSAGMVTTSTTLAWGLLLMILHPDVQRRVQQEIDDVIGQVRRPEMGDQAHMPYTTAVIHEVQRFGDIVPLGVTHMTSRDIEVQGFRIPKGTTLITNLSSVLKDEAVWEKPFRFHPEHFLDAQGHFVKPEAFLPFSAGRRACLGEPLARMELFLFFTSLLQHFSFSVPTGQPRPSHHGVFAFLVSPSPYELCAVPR

O=C1Nc2ccccc2/C1=C1/Nc2ccc(Br)cc2/C1=N\OCCN1CCNCC1
IC50 [1]: > 30 µM (not active)

O=C(CSc1nc2scc(-c3ccco3)c2c(=O)n1-c1ccccc1)NCC1CCCO1 (stereo not drawn)
IC50 [2]: 102 µM (not active)
IC50 [3]: 30.1 µM (not active)
IC50 [4]: 22.1 µM (active)

ONC1c2cc(Cl)ccc2-c2c(Cl)cc(Cl)cc21 (stereo not drawn)
IC50 [1]: < 0.3 µM (not active)

CCCc1nn(C)c(C(=O)Nc2cccc3ccccc23)c1Cl
EC50 [5]: 5.22 µM (active)

CCOC(=O)c1sc(NC(=S)NC(=O)C2CCCC2)cc1C
IC50 [6]: 5.29 µM (active)
IC50 [7]: > 138 µM (inactive)
IC50 [8]: > 49.8 µM (not active)

c1ccc(-c2onc3cc4c(cc23)OCCO4)cc1
IC50 [9]: 50.1 µM (not active)

c1ccc(Cc2nnc3sc(-c4ccco4)nn23)cc1
IC50 [2]: 15.2 µM (not active)
IC50 [4]: 11.4 µM (active)

CCCOc1ccccc1C1CC(=O)NC2=C1C(=O)CCC2 (stereo not drawn)
EC50 [10]: 16 µM (active)
EC50 [11]: 44.4 µM (active)
EC50 [12]: 17.2 µM (active)
CC50 [13]: > 40 µM (active)
EC50 [14]: 32.7 µM (active)

COC(=O)N1CCc2cc(OC)c(OC)cc2C1Cc1ccc(OC)cc1 (stereo not drawn)
AC50 [15]: 3.16 µM (inconclusive)
AC50 [16]: 3.98 µM (inconclusive)
AC50 [17]: 3.98 µM (inconclusive)

Oc1c2nc3cccc(Cl)c3c-2ncn1Cc1ccncc1
IC50 [9]: > 93.1 µM (not active)

Cc1ccsc1/C=N/c1ccc(O)cc1
IC50 [18]: 9.41 µM (active)
IC50 [19]: 31.2 µM (active)
IC50 [20]: 30.5 µM (inconclusive)
EC50 [21]: > 380 µM (inconclusive)
IC50 [22]: 2.36 µM (active)

CN(C)CCCN1C(=O)c2cccc3cccc(c23)C1=O
AC50 [23]: 38 µM (active)
AC50 [24]: 11.1 µM (active)
AC50 [25]: 68.1 µM (active)
AC50 [26]: 16.4 µM (active)
EC50 [5]: 0.815 µM (active)
AC50 [27]: 5.4 µM (active)

Nc1ccccc1NC1=CC(=O)CC(c2ccco2)C1 (stereo not drawn)
IC50 [20]: 31.6 µM (inconclusive)
